Measurements as given in patent publication US9586945B2, “Aminochromane, aminothiochromane and amino-1,2,3,4-tetrahydroquinoline derivatives, pharmaceutical compositions containing them, and their use in therapy” (AbbVie Deutschland GmbH & Co. KG, priority 2013, dated 2017).

Columns and labels:
[1] = target: human GlyT1c transporter (Homo sapiens (Human), UniProt P48067); test: Radioligand binding assay using recombinant CHO cell membranes expressing human GlyT1; conditions: examples marked * tested as fumarate salts, read-out: radioligand binding Kiapp
[2] = Metabolic stability in human liver microsomes; type: in vitro ADME; conditions: 0.5 μM test substance, NADPH, 37° C., scaled microsomal clearance, examples marked * tested as fumarate salts
Procedure: Metabolic stability was determined as follows:
0.5 μM test substance was preincubated together with human liver microsomes (0.25 mg of microsomal protein/[…]) in 0.05 M potassium phosphate buffer of pH 7.4 in microtiter plates at 37° C. for 5 min. The reaction was started by adding NADPH (1.0 mM). After 0, 5, 10, 15, 20 and 30 min the reaction was stopped and cooled with twice the amount of quench solution consisting of acetonitrile/methanol 1:1, and containing 0.2 μM carbutamide. The samples were frozen until analyzed. The remaining concentration of undegraded test substance was determined by LC MSMS. The half-life (T1/2) was determined from the gradient of the signal of test substance/unit time plot, al-lowing to calculate the half-life of the test substance, assuming first order kinetics, from the de-crease in the concentration of the compound with time. The microsomal clearance (mClint) was calculated as follows: mClint=((ln(2)/t1/2)/Microsomal Protein Concentration (mg/ml))*1000, leading to the unit of uL/min/mg. The scaled clearance (mClin_scaled) was calculated as mCLint_scaled=m CLint*(Microsomal Yield (mg/kg BW))/1000000*60, leading to the units L/hr/kg. The Microsomal Yield is defined by the specifics of the used microsomes. Calculations were modified from references: Di, The Society for Biomolecular Screening, 2003, 453-462; Obach, DMD, 1999 vol 27. N 11, 1350-1359.

Sequence of human GlyT1c transporter (P48067 whole entry): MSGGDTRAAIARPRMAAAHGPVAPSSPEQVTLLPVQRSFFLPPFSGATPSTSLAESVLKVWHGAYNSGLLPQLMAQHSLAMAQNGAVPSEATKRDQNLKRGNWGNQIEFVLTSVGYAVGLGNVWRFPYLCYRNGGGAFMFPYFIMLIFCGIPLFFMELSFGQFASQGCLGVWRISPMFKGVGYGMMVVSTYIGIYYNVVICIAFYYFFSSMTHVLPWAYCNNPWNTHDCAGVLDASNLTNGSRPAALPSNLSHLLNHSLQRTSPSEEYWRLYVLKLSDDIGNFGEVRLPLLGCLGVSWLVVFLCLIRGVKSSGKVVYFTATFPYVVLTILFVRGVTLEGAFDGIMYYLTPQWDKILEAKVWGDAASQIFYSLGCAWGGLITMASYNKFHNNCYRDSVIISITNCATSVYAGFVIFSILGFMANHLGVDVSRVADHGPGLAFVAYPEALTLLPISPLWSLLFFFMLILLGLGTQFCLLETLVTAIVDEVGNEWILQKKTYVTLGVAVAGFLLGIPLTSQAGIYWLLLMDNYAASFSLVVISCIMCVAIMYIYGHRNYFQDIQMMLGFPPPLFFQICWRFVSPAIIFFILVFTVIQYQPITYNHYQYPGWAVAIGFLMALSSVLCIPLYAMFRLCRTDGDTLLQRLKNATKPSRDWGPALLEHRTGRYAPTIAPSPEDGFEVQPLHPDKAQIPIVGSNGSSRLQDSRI

SMILES	Ki [1] [nM]	human mCl [2]
N[C@@H]1COc2ccc(N3CC(NS(=O)(=O)CC4CC4)C3)cc2[C@@H]1Cc1ccccc1 (relative stereo) [Example 21, Cis-N-(1-(3-amino-4-benzylchroman-6-yl)azetidin-3-yl)-1-cyclopropylmethanesulfonamide]	≤ 10	≦5 L/h/Kg
CCCS(=O)(=O)NC1CN(c2cc3c(cc2F)OC[C@H](NC)[C@H]3Cc2ccccc2)C1 (relative stereo) [Example 16b, trans-N-(1-(4-benzyl-7-fluoro-3-(methylamino)chroman-6-yl)azetidin-3-yl)propane-1-sulfonamide]	–	≦5 L/h/Kg
CN[C@H]1COc2cc(F)c(N3CC(NS(=O)(=O)CC4CC4)C3)cc2[C@H]1Cc1ccccc1 (relative stereo) [Example 19a, Cis-N-(1-(4-benzyl-7-fluoro-3-(methylamino)chroman-6-yl)azetidin-3-yl)-1-cyclopropylmethanesulfonamide]	–	≦50 L/h/Kg
CCCS(=O)(=O)NC1CN(c2cc3c(cc2F)OCC(NC)C3Cc2ccccc2)C1 (single isomer, unassigned) [Example 28, Cis-N-(1-(4-benzyl-7-fluoro-3-(methylamino)chroman-6-yl)azetidin-3-yl)propane-1-sulfonamide]	≤ 100	≦5 L/h/Kg
O=S(=O)(NC1CN(c2cc3c(cc2F)OC[C@@H](N2CCC2)[C@H]3Cc2ccccc2)C1)c1cccnc1F (relative stereo) [Example 8, Cis-N-(1-(3-(azetidin-1-yl)-4-benzyl-7-fluorochroman-6-yl)azetidin-3-yl)-2-fluoropyridine-3-sulfonamide]	≤ 1000	≦50 L/h/Kg
O=S(=O)(NC1CN(c2cc3c(cc2F)OC[C@@H](N2CCC2)[C@H]3Cc2ccccc2)C1)c1cncc(F)c1 (relative stereo) [Example 26, Cis-1-(4-benzyl-7-fluoro-6-(3-(5-fluoropyridine-3-sulfonamido)azetidin-1-yl)chroman-3-yl)azetidin-1-ium (E)-3-carboxyacrylate]	≤ 100	≦50 L/h/Kg
CCCS(=O)(=O)NC1CN(c2cc3c(cc2F)OC[C@H](NC)[C@@H]3Cc2ccccc2)C1 (relative stereo) [Example 16a, Cis-N-(1-(4-benzyl-7-fluoro-3-(methylamino)chroman-6-yl)azetidin-3-yl)propane-1-sulfonamide]	–	≦5 L/h/Kg
CCCS(=O)(=O)NC1CN(c2ccc3c(c2)[C@H](Cc2ccccc2)[C@H](NCC2CC2)CO3)C1 (relative stereo) [Example 31, Cis-N-(1-(4-benzyl-3-((cyclopropylmethyl)amino)chroman-6-yl)azetidin-3-yl)propane-1-sulfonamide]	≤ 1000	≦5 L/h/Kg
CCCS(=O)(=O)NC1CN(c2cc3c(cc2F)OCC(NC)C3Cc2ccccc2)C1 (single isomer, unassigned) [Example 27, Cis-N-(1-(4-benzyl-7-fluoro-3-(methylamino)chroman-6-yl)azetidin-3-yl)propane-1-sulfonamide]	≤ 10	≦50 L/h/Kg
CNC1COc2ccc(N3CC(NS(=O)(=O)CC4CC4)C3)cc2C1Cc1ccccc1 (racemic) [Example 13, Cis-N-(1-(4-benzyl-3-(methylamino)chroman-6-yl)azetidin-3-yl)-1-cyclopropylmethanesulfonamide]	≤ 10	≦5 L/h/Kg
CCCS(=O)(=O)NC1CN(c2ccc3c(c2)C(Cc2ccccc2)C(NC)CO3)C1 (single isomer, unassigned) [Example 23, Cis-N-(1-(4-benzyl-3-(methylamino)chroman-6-yl)azetidin-3-yl)propane-1-sulfonamide]	≤ 1000	≦50 L/h/Kg
CCCS(=O)(=O)NC1CN(c2ccc3c(c2)[C@H](Cc2ccccc2)[C@H](NC2CCC2)CO3)C1 (relative stereo) [Example 32, Cis-N-(1-(4-benzyl-3-(cyclobutylamino)chroman-6-yl)azetidin-3-yl)propane-1-sulfonamide]	≤ 1000	≦5 L/h/Kg
O=S(=O)(NC1CN(c2cc3c(cc2F)OC[C@@H](N2CCC2)[C@H]3Cc2ccccc2)C1)c1cccnn1 (relative stereo) [Example 9, Cis-N-(1-(3-(azetidin-1-yl)-4-benzyl-7-fluorochroman-6-yl)azetidin-3-yl)pyridazine-3-sulfonamide]	≤ 1000	≦50 L/h/Kg
CN[C@H]1COc2cc(F)c(N3CC(NS(=O)(=O)c4cn(C)cn4)C3)cc2[C@H]1Cc1ccccc1 (relative stereo) [Example 15a, Cis-N-(1-(4-benzyl-7-fluoro-3-(methylamino)chroman-6-yl)azetidin-3-yl)-1-methyl-1H-imidazole-4-sulfonamide]	–	≦5 L/h/Kg
CCCS(=O)(=O)NC1CN(c2ccc3c(c2)[C@H](Cc2ccccc2)[C@H](N2CCC2)CO3)C1 (relative stereo) [Example 3, Cis-N-(1-(3-(azetidin-1-yl)-4-benzylchroman-6-yl)azetidin-3-yl)propane-1-sulfonamide]	≤ 100	≦5 L/h/Kg
CCS(=O)(=O)NC1CN(c2ccc3c(c2)[C@H](Cc2ccccc2)[C@H](N2CCC2)CO3)C1 (relative stereo) [Example 2, Cis-N-(1-(3-(azetidin-1-yl)-4-benzylchroman-6-yl)azetidin-3-yl)ethanesulfonamide]	≤ 1000	≦5 L/h/Kg
CN[C@H]1COc2cc(F)c(N3CC(NS(=O)(=O)c4cn(C)nn4)C3)cc2[C@@H]1Cc1ccccc1 (relative stereo) [Example 18b, trans-N-(1-(4-benzyl-7-fluoro-3-(methylamino)chroman-6-yl)azetidin-3-yl)-1-methyl-1H-1,2,3-triazole-4-sulfonamide]	–	≦5 L/h/Kg
CCS(=O)(=O)NC1CN(c2ccc3c(c2)[C@H](Cc2ccccc2)[C@H](NC)CO3)C1 (relative stereo) [Example 12, Cis-N-(1-(-4-benzyl-3-(methylamino)chroman-6-yl)azetidin-3-yl)ethanesulfonamide]	≤ 100	≦5 L/h/Kg
CCS(=O)(=O)NC1CN(c2cc3c(cc2F)OC[C@H](NC)[C@H]3Cc2ccccc2)C1 (relative stereo) [Example 14b, trans-N-(1-(4-benzyl-7-fluoro-3-(methylamino)chroman-6-yl)azetidin-3-yl)ethanesulfonamide]	–	≦5 L/h/Kg
CN[C@H]1COc2cc(F)c(N3CC(NS(=O)(=O)c4cn(C)cn4)C3)cc2[C@@H]1Cc1ccccc1 (relative stereo) [Example 15b, trans-N-(1-(4-benzyl-7-fluoro-3-(methylamino)chroman-6-yl)azetidin-3-yl)-1-methyl-1H-imidazole-4-sulfonamide]	–	≦5 L/h/Kg
CN[C@H]1COc2cc(F)c(N3CC(NS(=O)(=O)CC4CC4)C3)cc2[C@@H]1Cc1ccccc1 (relative stereo) [Example 19b, trans-N-(1-(4-benzyl-7-fluoro-3-(methylamino)chroman-6-yl)azetidin-3-yl)-1-cyclopropylmethanesulfonamide]	–	≦50 L/h/Kg
CCS(=O)(=O)NC1CN(c2cc3c(cc2F)OC[C@H](NC)[C@@H]3Cc2ccccc2)C1 (relative stereo) [Example 14a, Cis-N-(1-(4-benzyl-7-fluoro-3-(methylamino)chroman-6-yl)azetidin-3-yl)ethanesulfonamide]	–	≦5 L/h/Kg
CN[C@H]1COc2cc(F)c(N3CC(NS(=O)(=O)c4cnn(C)c4)C3)cc2[C@@H]1Cc1ccccc1 (relative stereo) [Example 17b, trans-N-(1-(4-benzyl-7-fluoro-3-(methylamino)chroman-6-yl)azetidin-3-yl)-1-methyl-1H-pyrazole-4-sulfonamide]	–	≦5 L/h/Kg
CNC1COc2cc(F)c(N3CC(NS(=O)(=O)c4cn(C)cn4)C3)cc2C1Cc1ccccc1 (single isomer, unassigned) [Example 15a, Cis-N-(1-(4-benzyl-7-fluoro-3-(methylamino)chroman-6-yl)azetidin-3-yl)-1-methyl-1H-imidazole-4-sulfonamide]	≤ 10	–
CN[C@H]1COc2cc(F)c(N3CC(NS(=O)(=O)c4cnn(C)c4)C3)cc2[C@H]1Cc1ccccc1 (relative stereo) [Example 17a, Cis-N-(1-(4-benzyl-7-fluoro-3-(methylamino)chroman-6-yl)azetidin-3-yl)-1-methyl-1H-pyrazole-4-sulfonamide]	–	≦5 L/h/Kg
CCCS(=O)(=O)NC1CN(c2cc3c(cc2F)OCC(NC)C3Cc2ccccc2)C1 (single isomer, unassigned) [Example 16b, trans-N-(1-(4-benzyl-7-fluoro-3-(methylamino)chroman-6-yl)azetidin-3-yl)propane-1-sulfonamide]	≤ 10	–
CN[C@H]1COc2cc(F)c(N3CC(NS(=O)(=O)c4cn(C)nn4)C3)cc2[C@H]1Cc1ccccc1 (relative stereo) [Example 18a, Cis-N-(1-(4-benzyl-7-fluoro-3-(methylamino)chroman-6-yl)azetidin-3-yl)-1-methyl-1H-1,2,3-triazole-4-sulfonamide]	–	≦50 L/h/Kg
